Here are results for three compounds from patent publication US6641811B1, “Use of angiotensin II inhibitors to prevent malignancies associated with immunosuppression” (Cornell Research Foundation, Inc., priority 2000, dated 2003).

Common to all, as to assay type: in vivo
Assay [1] has as its system human bladder cancer cells (T24). Kind of assay: Pulmonary metastases of T24 human bladder cancer cells injected via tail vein into SCID-beige mice. Conditions: for Number of metastases (mean ± SEM), T-24, with Enalapril: enalapril 10 mg/kg intraperitoneal twice a day, alone or with Cyclosporine 20 mg/kg or FK506 4 mg/kg every other day; for Incidence of tumors as compared to controls: summary of Table I (T24 and Renca) and Example 3 (T-24), in the absence of immunosuppressive agent. The protocol: (§1) In vivo tumor growth. Murine renal cell adenocarinoma cells (1×10^5 in Hanks balanced salt solution), murine Lewis lung carcinoma cells (1×10^5 cells), or human bladder cancer cells (1×10^5 cells) are injected via the tail vein into 6-wk old male SCID-beige mice. […] On day 19 or 23 post tumor inoculation, mice are killed and the number of pulmonary metastases is determined […] endotracheal insufflation of lungs with 15% India ink solution and bleaching the harvested lungs in Fekete's solution.
(§2) SCID-beige (immunodeficient) mice were inoculated with human bladder cancer cells (T24) or murine renal cancer cells (Renca). Tumor bearing mice were then treated with cyclosporin A or the angiotensin II receptor blocker, losartan or both.
(§3) Tumor cells (1×10^5 in HBSS) were injected via the tail vein into SCID-beige mice. […] The mice were sacrificed on day 19 (Renca) and day 23 (T24) and the number of metastases was counted as described (reference 7).

The subject of assay [2] is pulmonary metastasis. Kind of assay: Tumor progression / development of pulmonary metastasis in experimental animals (Example 2).
The subject of assay [3] is murine renal cancer cells (Renca). Put plainly: Pulmonary metastases of Renca murine renal cancer cells injected via tail vein into SCID-beige mice. The following applies: 1×10^5 Renca cells via tail vein, sacrificed day 19, CsA 20 mg/kg SQ QOD, Losartan 10 mg/kg SQ BID, untreated 125 ± 22. The protocol: as §1, with “solution. The effect of angiotensin II inhibitors and anti-angiotensin II mAbs and the control IgG1 mAbs on CsA-induced increase in the number of pulmonary metastases is determined by intraperitoneal administration of 200 μg of mAbs, on a daily basis starting from day −1 to day 19 post tumor inoculation.” for “solution.”
as §2, §3

Setting [4] is: SCID beige mice, 100,000 T-24 cells by tail vein.

As to `CCOC(=O)[C@H](CCc1ccccc1)N[C@@H](C)C(=O)N1CCC[C@H]1C(=O)O` [Enalapril], the “Number of metastases (mean ± SEM), T-24, with Enalapril” value in assay [1] (setting [4]) is 21 ± 3. The “Incidence of tumors as compared to controls” value in assay [1] is on record as “reduces the incidence of tumors as compared to controls”. In addition, the “Effect on development of pulmonary metastasis” value in assay [2] is recorded as “prevented the development of pulmonary metastasis”.

On to `C=CC[C@@H]1/C=C(\C)C[C@H](C)C[C@H](OC)[C@H]2O[C@@](O)(C(=O)C(=O)N3CCCC[C@H]3C(=O)O[C@H](/C(C)=C/[C@@H]3CC[C@@H](O)[C@H](OC)C3)[C@H](C)[C@@H](O)CC1=O)[C@H](C)C[C@@H]2OC` [FK506], for which the “Number of metastases (mean ± SEM), T-24, without Enalapril” value in assay [1] (SCID beige mice, 100,000 T-24 cells by tail vein, Cyclosporine 20 mg/kg or FK506 4 mg/kg every other day, no enalapril, untreated 38 ± 4) worked out at 72 ± 21. Further, the “Number of metastases (mean ± SEM), T-24, with Enalapril” value in assay [1] (setting [4]) amounted to 30 ± 2.

Turning to `CCCCc1nc(Cl)c(CO)n1Cc1ccc(-c2ccccc2-c2nn[nH]n2)cc1` [Losartan], the “Number of Pulmonary Metastases (Mean ± SEM), Renca” value in assay [3] is reported as 67 ± 15. For the same compound, in assay [1] (SCID-beige mice, 1×10^5 T24 cells via tail vein, sacrificed day 23, CsA 20 mg/kg SQ QOD, Losartan 10 mg/kg SQ BID, untreated 25 ± 7), the “Number of Pulmonary Metastases (Mean ± SEM), T24” value came out at 12 ± 3. The “Incidence of tumors as compared to controls” value in assay [1] is recorded as “reduces the incidence of tumors as compared to controls”.
